We go through four molecules from ChEMBL document CHEMBL1151200, “Comparison of fascaplysin and related alkaloids: a study of structures, cytotoxicities, and sources” (J Nat Prod, 2004).

One may read the IC50 as the concentration needed to halve the response being measured. A lower IC50 goes with greater potency.

The subject of one data set is KM12. Kind of data set: Antitumor activity against human KM12 cells. Format: functional, cell-based.
The test system of another data set is SNB-19. Kind of data set: Antitumor activity against human SNB19 cells. The data set is classed as functional, cell-based.
For the next data set, the system named is COLO 205. Kind of data set: Antitumor activity against human COLO205 cells. Format: functional, cell-based.
The test system of the next data set is SF-268. Kind of data set: Antitumor activity against human SF268 cells. Format: functional, cell-based.
In the next data set the test system is HCC 2998. Kind of data set: Antitumor activity against human HCC2998 cells. Format: functional, cell-based.
The subject of a further data set is SK-MEL-5. Kind of data set: Antitumor activity against human SK-MEL-5 cells. Format: functional, cell-based.
The test system of the next data set is TK-10. Kind of data set: Antitumor activity against human TK10 cells. Format: functional, cell-based.
Another data set has as its system SF-539. Kind of data set: Antitumor activity against human SF539 cells. Format: functional, cell-based.
The next data set has as its system MDA-N. Kind of data set: Antitumor activity against human MDA-N cells. The data set is classed as functional, cell-based.
The subject of another data set is UACC-257. Kind of data set: Antitumor activity against human UACC257 cells. Format: functional, cell-based.
Data set [1] relates to MCF7. Kind of data set: Antitumor activity against human MCF7 cells. The data set is classed as functional, cell-based.
The test system of another data set is SK-MEL-28. Kind of data set: Antitumor activity against human SK-MEL-28 cells. Format: functional, cell-based.
For another data set, the system named is HCT-15. Kind of data set: Antitumor activity against human HCT15 cells. The data set is classed as functional, cell-based.
In a further data set the test system is NCI-H322M. Kind of data set: Antitumor activity against human NCI-H322M cells. The data set is classed as functional, cell-based.
The subject of another data set is K562. Kind of data set: Antitumor activity against human K562 cells. The data set is classed as functional, cell-based.
Another data set deals with EKVX. Kind of data set: Antitumor activity against human EKVX cells. Format: functional, cell-based.
In a further data set the test system is PC-3. Kind of data set: Antitumor activity against human PC3 cells. Format: functional, cell-based.
In another data set the test system is HOP-62. Kind of data set: Antitumor activity against human HOP62 cells. Format: functional, cell-based.
The subject of another data set is HT-29. Kind of data set: Antitumor activity against human HT-29 cells. The data set is classed as functional, cell-based.
For the next data set, the system named is NCI-H460. Kind of data set: Antitumor activity against human NCI-H460 cells. Format: functional, cell-based.
In another data set the test system is Malme-3M. Kind of data set: Antitumor activity against human MALME-3M cells. The data set is classed as functional, cell-based.
The test system of another data set is SF-295. Kind of data set: Antitumor activity against human SF295 cells. Format: functional, cell-based.
For the next data set, the system named is BT-549. Kind of data set: Antitumor activity against human BT549 cells. Format: functional, cell-based.
Data set [2] is described as follows: Antitumor activity against human 786-O cells. Particulars: 786-0. Format: functional, cell-based.
In the next data set the test system is RXF 393. Kind of data set: Antitumor activity against human RXF393 cells. The data set is classed as functional, cell-based.
The next data set deals with NCI-H226. Kind of data set: Antitumor activity against human NCI-H226 cells. Format: functional, cell-based.
For another data set, the system named is OVCAR-8. Kind of data set: Antitumor activity against human OVCAR8 cells. Format: functional, cell-based.
Data set [3] relates to CCRF-CEM. Kind of data set: Antitumor activity against human CCRF-CEM cells. The data set is classed as functional, cell-based.
Another data set has as its system HCT-116. Kind of data set: Antitumor activity against human HCT116 cells. The data set is classed as functional, cell-based.
A further data set relates to U-251. Kind of data set: Antitumor activity against human U251 cells. The data set is classed as functional, cell-based.
In the next data set the test system is OVCAR-3. Kind of data set: Antitumor activity against human OVCAR-3 cells. The data set is classed as functional, cell-based.
The test system of another data set is MDA-MB-231. Kind of data set: Antitumor activity against human MDA-MB-231 cells. Format: functional, cell-based.
Another data set deals with SK-OV-3. Kind of data set: Antitumor activity against human SKOV3 cells. Format: functional, cell-based.
The test system of a further data set is OVCAR-4. Kind of data set: Antitumor activity against human OVCAR4 cells. Format: functional, cell-based.
A further data set deals with MDA-MB-435. Kind of data set: Antitumor activity against human MDA-MB-435 cells. Format: functional, cell-based.
A short description of data set [4]: Antitumor activity against human Hs 578T cells. The data set is classed as functional, cell-based.
The subject of the next data set is IGROV-1. Kind of data set: Antitumor activity against human IGROV1 cells. The data set is classed as functional, cell-based.
In another data set the test system is SNB-75. Kind of data set: Antitumor activity against human SNB75 cells. The data set is classed as functional, cell-based.
The subject of a further data set is OVCAR-5. Kind of data set: Antitumor activity against human OVCAR5 cells. Format: functional, cell-based.
Another data set has as its system NCI-H23. Kind of data set: Antitumor activity against human NCI-H23 cells. Format: functional, cell-based.
A further data set relates to SR. Kind of data set: Antitumor activity against human SR cells. Format: functional, cell-based.
In data set [5] the test system is MCF7. Kind of data set: Antitumor activity against […] human MCF7 cells. Format: functional, cell-based.
The next data set relates to UO-31. Kind of data set: Antitumor activity against human UO31 cells. Format: functional, cell-based.
In another data set the test system is UACC-62. Kind of data set: Antitumor activity against human UACC62 cells. Format: functional, cell-based.
The next data set relates to LOX IMVI. Kind of data set: Antitumor activity against human LOXIMVI cells. The data set is classed as functional, cell-based.
The next data set has as its system DU-145. Kind of data set: Antitumor activity against human DU145 cells. Format: functional, cell-based.
In the next data set the test system is NCI-H522. Kind of data set: Antitumor activity against human NCI-H522 cells. Format: functional, cell-based.
The next data set deals with CAKI-1. Kind of data set: Antitumor activity against human Caki1 cells. The data set is classed as functional, cell-based.
For the next data set, the system named is SW-620. Kind of data set: Antitumor activity against human SW620 cells. Format: functional, cell-based.
The test system of another data set is HOP-92. Kind of data set: Antitumor activity against human HOP92 cells. Format: functional, cell-based.
For a further data set, the system named is ACHN. Kind of data set: Antitumor activity against human ACHN cells. Format: functional, cell-based.
The test system of another data set is A549. Kind of data set: Antitumor activity against human A549/ATCC cells. Format: functional, cell-based.
Another data set has as its system T47D. Kind of data set: Antitumor activity against human T47D cells. Format: functional, cell-based.
For the next data set, the system named is SN12C. Kind of data set: Antitumor activity against human SN12C cells. Format: functional, cell-based.
A further data set relates to MOLT-4. Kind of data set: Antitumor activity against human MOLT4 cells. The data set is classed as functional, cell-based.
A further data set has as its system M14. Kind of data set: Antitumor activity against human M14 cells. Format: functional, cell-based.
The test system of another data set is HL-60(TB). Kind of data set: Antitumor activity against human HL-60(TB) cells. The data set is classed as functional, cell-based.
The subject of another data set is RPMI-8226. Kind of data set: Antitumor activity against human RPMI8226 cells. The data set is classed as functional, cell-based.
The subject of data set [6] is MC-38. Kind of data set: Cytotoxicity against mouse C38 cells at 84 ug/disk by disk diffusion soft agar colony formation assay. The data set is classed as functional.
Data set [7] can be described thus: Cytotoxicity against mouse CFU-GM cells at 84 ug/disk by disk diffusion soft agar colony formation assay. Format: cell-based. Background: In agar diffusion tests the substance spreads into inoculated agar from a disc or well.
The nature of data set [8]: Cytotoxicity against human H125 cells at 84 ug/disk by disk diffusion soft agar colony formation assay. The data set is classed as functional.
Data set [9] is described as follows: Cytotoxicity against human H116 cells at 84 ug/disk by disk diffusion soft agar colony formation assay. Format: functional.
For data set [10], the system named is CCRF-CEM. Kind of data set: Cytotoxicity against human CEM cells at 84 ug/disk by disk diffusion soft agar colony formation assay. Format: functional.
The test system of data set [11] is L1210. Kind of data set: Cytotoxicity against mouse L1210 cells at 84 ug/disk by disk diffusion soft agar colony formation assay. Format: functional.
Data set [12] is described as follows: Cytotoxicity against human H125 cells at 64 ug/disk by disk diffusion soft agar colony formation assay. The data set is classed as functional.
The subject of data set [13] is L1210. Kind of data set: Cytotoxicity against mouse L1210 cells at 64 ug/disk by disk diffusion soft agar colony formation assay. Format: functional.
Data set [14] deals with CCRF-CEM. Kind of data set: Cytotoxicity against human CEM cells at 64 ug/disk by disk diffusion soft agar colony formation assay. Format: functional.
Data set [15] in a line: Cytotoxicity against human H116 cells at 64 ug/disk by disk diffusion soft agar colony formation assay. Format: functional.
In data set [16] the test system is MC-38. Kind of data set: Cytotoxicity against mouse C38 cells at 64 ug/disk by disk diffusion soft agar colony formation assay. Format: functional.

As to `CC1=C(CC/C(C)=C/CC/C(C)=C/CCC(CC(=O)O)C(=O)[O-])C(C)(C)CCC1.O=C1c2ccccc2-[n+]2ccc3c([nH]c4ccccc43)c21` (stereo not given) [FASCAPLYSIN A], the IC50 in the data set on KM12 amounted to 7.3 µM; in the data set on SNB-19, 5.4 µM; with COLO 205, 0.83 µM; with SF-268, 5.7 µM; in the data set on HCC 2998 it was 3.8 µM; in the data set on SK-MEL-5, 0.53 µM. In addition, the IC50 with TK-10 was greater than 10 µM; in the data set on SF-539, 2.2 µM; in the data set with MDA-N, 0.58 µM; in the data set with UACC-257, 3.8 µM; with MCF7 [1] it was 5 µM; in the data set with SK-MEL-28, 3.9 µM. The IC50 in the data set on HCT-15 is 5.8 µM; with NCI-H322M, 4.3 µM; in the data set with K562, greater than 10 µM; in the data set on EKVX, 5.2 µM; with PC-3, 5.4 µM; with HOP-62 it was 5.1 µM. The IC50 was 1.4 µM in the data set on HT-29; 6.4 µM with NCI-H460; 0.54 µM with Malme-3M; 5.2 µM with SF-295; 5.1 µM with BT-549; 5.1 µM in data set [2]. Also, the IC50 is 3.5 µM in the data set with RXF 393; 8.3 µM with NCI-H226; 5.3 µM with OVCAR-8; greater than 10 µM in the data set with CCRF-CEM [3]; 1.6 µM in the data set on HCT-116; 4.1 µM in the data set with U-251. Moreover, the IC50 in the data set on OVCAR-3 is 3.1 µM; in the data set on MDA-MB-231 it was 6.8 µM; in the data set on SK-OV-3, 7.7 µM; in the data set with OVCAR-4 it was 4.5 µM; with MDA-MB-435 it was 0.57 µM; in [4], greater than 10 µM. The IC50 in the data set on IGROV-1 is 1.7 µM; in the data set with SNB-75 it was 5.2 µM; in the data set with OVCAR-5, 5.8 µM; with NCI-H23, 5.1 µM; in the data set with SR it was greater than 10 µM; with MCF7 [5] it was greater than 10 µM. The IC50 came out at 5.6 µM in the data set on UO-31; 3.2 µM in the data set with UACC-62; 6.3 µM in the data set on LOX IMVI; 5.6 µM in the data set on DU-145; 6.3 µM in the data set with NCI-H522; 7.3 µM with CAKI-1. Also, the IC50 in the data set with SW-620 was determined as 3.9 µM; in the data set with HOP-92, 1 µM; in the data set on ACHN, 5.5 µM; in the data set with A549 it was 7.6 µM; in the data set on T47D it was 6.6 µM; with SN12C it was 3.2 µM. The IC50 in the data set with MOLT-4 was greater than 10 µM; in the data set on M14, 4.2 µM; in the data set on HL-60(TB), greater than 10 µM; in the data set on RPMI-8226, greater than 10 µM.

On to `Oc1ccc(Br)cc1-[n+]1ccc2c(c1)[nH]c1ccccc12.[Cl-]`, for which the Activity with MC-38 [6] is given as 400 Zone units; in data set [7] it was 450 Zone units; in [8], 550 Zone units; in [9], 500 Zone units; in the data set on CCRF-CEM [10], 750 Zone units; in the data set on L1210 [11], 450 Zone units.

For the molecule `COC(=O)c1ccc(Br)cc1-[n+]1ccc2c(c1)[nH]c1cc(Br)ccc12.[Cl-]`, the Activity with MC-38 [6] turned out to be 350 Zone units; in data set [7] it was 400 Zone units; in [8] it was 500 Zone units; in data set [9], 300 Zone units; with CCRF-CEM [10], 300 Zone units; with L1210 [11], 450 Zone units.

As to `O=C(O)c1ccccc1-[n+]1ccc2c(c1)[nH]c1ccccc12.[Cl-]` [RETICULATATE], the Activity in data set [12] came out at 500 Zone units; with L1210 [13], 650 Zone units; in the data set with CCRF-CEM [14], 350 Zone units; in data set [15] it was 650 Zone units; with MC-38 [16] it was 700 Zone units.
